Measurements taken from patent US11028075B2, “Therapeutic compounds and methods of use thereof” (GENENTECH, INC., priority 2018, dated 2021).
Structures can show the parent of a compound that is named as a salt.

How the values were obtained:
[1] = molecular target: T1, hNav1.7 (Homo sapiens (Human), UniProt Q15858); test: Tritiated compound binding to membranes from cells heterologously expressing hNav1.7 and the β1 subunit (Nav1.7 LBA); details: competitive binding vs [3H]compound, membranes with hNav1.7 and β1 subunit; read-out: Nav1.7 LBA EVO IC50
Method: Example 93A. Tritiated Compound Binding to Membranes Isolated from Cells that Heterologously Express hNav1.7 and the β1 Subunit
Preparation of membranes containing recombinantly expressed sodium channels: Frozen recombinant cell pellets are thawed on ice and diluted to 4 times the cell pellet weight with ice cold 50 mM Tris HCl, pH 7.4 buffer. The cell suspensions are homogenized on ice using a motorized glass dounce homogeniser. Homogenates are further diluted 8.4 times with ice cold 50 mM Tris HCl, pH 7.4 buffer and then centrifuged at 200×g at 4° C. for 15 minutes. The supernatants are collected and centrifuged at 10000×g at 4° C. for 50 min. The pellets are then re-suspended in 100 mM NaCl, 20 mM Tris HCl, pH 7.4 buffer containing 1% v/v protease inhibitors (Calbiochem) and re-homogenized on ice. The homogenized membranes are then processed through a syringe equipped with a 26 gauge needle. Protein concentrations arer determined by Bradford Assay and the membranes are stored at −80° C.
Saturation experiments. A competitive NaV1.7 inhibitor having a methyl group is tritiated. Three tritiums are incorporated in place of methyl hydrogens to generate [^3H]compound. Binding of this radioligand is performed in 5 mL borosilicate glass test tubes at room temperature. Binding is initiated by adding membranes to increasing concentrations of [^3H]compound in 100 mM NaCl, 20 mM Tris HCl, pH 7.4 buffer containing 0.01% w/v bovine serum albumin (BSA) for 18 h. Non-specific binding is determined in the presence of 1 μM unlabeled compound. After 18 h, the reactants are filtered through GF/C glass fiber filters presoaked in 0.5% w/v polyethylene imine. Filters are washed with 15 mL ice cold 100 mM NaCl, 20 mM Tris HCl, pH7.4 buffer containing 0.25% BSA to separate bound from free ligand. [^3H]compound bound to filters is quantified by liquid scintillation counting.
Binding reactions are performed in 96-well polypropylene plates at room temperature for 18 h. In 360 μL, membranes are incubated with […] [^3H]compound and increasing concentrations of Test Compound. Non-specific binding is defined in the presence of 1 μM unlabeled compound. Reactions are transferred and filtered through 96-well glass fiber/C filter plates presoaked with 0.5% polyethylene imine. The filtered reactions are washed 5 times with 200 μL ice cold buffer containing 0.25% BSA. Bound radioactivity is determined by liquid scintillation counting.
Data Analysis: For saturation experiments, non-specific binding is subtracted from total binding to provide specific binding and these values are recalculated in terms of pmol ligand bound per mg protein. Saturation curves are constructed and dissociation constants are calculated using the single site ligand binding model: Beq=(Bmax*X)/(X+Kd), where Beq is the amount of ligand bound at equilibrium, Bmax is the maximum receptor density, Kd is the dissociation constant for the ligand, and X is the free ligand concentration. For competition studies percent inhibition is determined and IC50 values are calculated using a 4 parameter logistic model (% inhibition=(A+((B−A)/(1+((x/C)^D)))) using XLfit, where A and B are the maximal and minimum inhibition respectively, C is the IC50 concentration and D is the (Hill) slope.
Example 93B. Tritiated Compound Binding to Membranes Isolated from Cells that Heterologous Express hNav1.7 and the β1 Subunit
Following the procedure described in Example 93A, and making modifications as required to: centrifuge supernatants at 100000×g instead of 10000×g; re-suspend pellets in a buffer containing 0.01% BSA in addition to 100 mM NaCl, 20 mM Tris HCl, pH 7.4 buffer, and 1% v/v proteasome inhibitors; and storing membranes at −80° C. in single use aliquots instead of pooled. […]
Target sequence in this assay (Q15858 whole entry, looked up): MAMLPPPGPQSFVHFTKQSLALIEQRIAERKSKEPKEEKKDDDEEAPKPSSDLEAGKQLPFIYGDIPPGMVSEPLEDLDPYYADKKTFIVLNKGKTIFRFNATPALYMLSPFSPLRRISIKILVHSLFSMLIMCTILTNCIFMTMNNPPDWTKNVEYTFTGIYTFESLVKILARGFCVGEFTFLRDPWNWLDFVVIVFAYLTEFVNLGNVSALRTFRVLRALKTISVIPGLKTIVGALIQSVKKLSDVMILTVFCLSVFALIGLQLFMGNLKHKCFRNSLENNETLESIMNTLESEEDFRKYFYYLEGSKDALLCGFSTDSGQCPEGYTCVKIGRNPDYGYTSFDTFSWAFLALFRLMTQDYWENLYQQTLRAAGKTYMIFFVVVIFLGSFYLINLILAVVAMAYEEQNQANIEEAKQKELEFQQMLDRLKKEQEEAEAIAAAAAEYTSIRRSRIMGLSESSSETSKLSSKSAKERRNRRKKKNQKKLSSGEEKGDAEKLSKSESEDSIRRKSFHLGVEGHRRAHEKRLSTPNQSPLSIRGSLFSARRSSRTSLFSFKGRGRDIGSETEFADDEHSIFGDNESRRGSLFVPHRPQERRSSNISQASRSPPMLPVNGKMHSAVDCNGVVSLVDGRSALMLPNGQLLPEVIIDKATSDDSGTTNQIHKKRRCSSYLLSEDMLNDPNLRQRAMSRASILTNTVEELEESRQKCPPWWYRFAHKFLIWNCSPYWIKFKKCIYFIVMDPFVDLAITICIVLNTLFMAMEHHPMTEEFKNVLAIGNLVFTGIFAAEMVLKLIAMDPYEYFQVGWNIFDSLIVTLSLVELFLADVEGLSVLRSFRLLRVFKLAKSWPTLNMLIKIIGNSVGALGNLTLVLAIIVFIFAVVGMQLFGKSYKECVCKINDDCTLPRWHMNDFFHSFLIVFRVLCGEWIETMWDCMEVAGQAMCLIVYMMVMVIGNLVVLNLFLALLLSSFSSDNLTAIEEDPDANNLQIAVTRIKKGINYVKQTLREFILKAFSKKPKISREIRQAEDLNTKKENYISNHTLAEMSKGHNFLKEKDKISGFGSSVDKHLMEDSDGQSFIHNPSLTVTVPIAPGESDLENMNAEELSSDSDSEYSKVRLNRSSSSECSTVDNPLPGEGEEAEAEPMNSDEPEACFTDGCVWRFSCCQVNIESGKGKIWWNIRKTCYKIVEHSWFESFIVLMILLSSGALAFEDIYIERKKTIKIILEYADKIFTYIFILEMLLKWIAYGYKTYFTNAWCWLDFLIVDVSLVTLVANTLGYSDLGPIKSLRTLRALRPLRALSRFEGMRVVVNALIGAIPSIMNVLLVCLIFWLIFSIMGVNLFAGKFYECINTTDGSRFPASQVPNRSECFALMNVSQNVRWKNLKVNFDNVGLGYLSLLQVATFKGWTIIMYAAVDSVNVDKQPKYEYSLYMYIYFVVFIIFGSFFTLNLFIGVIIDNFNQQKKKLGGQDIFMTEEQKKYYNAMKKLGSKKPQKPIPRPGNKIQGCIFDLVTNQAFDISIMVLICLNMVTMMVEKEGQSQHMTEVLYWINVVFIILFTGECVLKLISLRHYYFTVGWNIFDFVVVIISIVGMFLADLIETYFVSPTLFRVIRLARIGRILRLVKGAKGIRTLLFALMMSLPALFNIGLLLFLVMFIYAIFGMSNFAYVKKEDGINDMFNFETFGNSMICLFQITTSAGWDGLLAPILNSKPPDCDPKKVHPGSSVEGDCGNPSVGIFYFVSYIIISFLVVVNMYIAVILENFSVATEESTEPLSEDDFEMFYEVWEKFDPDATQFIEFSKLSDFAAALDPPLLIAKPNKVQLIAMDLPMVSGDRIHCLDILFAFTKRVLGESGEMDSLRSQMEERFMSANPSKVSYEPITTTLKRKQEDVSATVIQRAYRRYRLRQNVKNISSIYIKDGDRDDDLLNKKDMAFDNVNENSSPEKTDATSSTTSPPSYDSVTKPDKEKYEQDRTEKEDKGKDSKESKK
Target sequence in this assay (Q07699 whole entry partner, looked up): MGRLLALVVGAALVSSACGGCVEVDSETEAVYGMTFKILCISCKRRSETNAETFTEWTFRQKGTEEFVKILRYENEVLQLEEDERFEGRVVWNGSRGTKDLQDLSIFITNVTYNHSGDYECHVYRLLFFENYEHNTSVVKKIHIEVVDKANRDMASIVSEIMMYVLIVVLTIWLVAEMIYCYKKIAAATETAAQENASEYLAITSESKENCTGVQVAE

[2] = molecular target: T1, hNav1.7; test: Electrophysiological assay (EP), voltage clamp on Syncropatch 384PE, CHO cells stably expressing Nav1.7; type: cell-based; details: holding potential −50 mV, 7.5 min compound incubation, read-out: EP_SP hNav1.7 EVO IC50
Description: Example 93C. Electrophysiological Assay (EP) (In Vitro Assay)
Patch voltage clamp electrophysiology allows for the direct measurement and quantification of block of voltage-gated sodium channels (NaV's), and allows the determination of the time- and voltage-dependence of block which has been interpreted as differential binding to the resting, open, and inactivated states of the sodium channel (Hille, B., Journal of General Physiology (1977), 69: 497-515).
The following voltage clamp electrophysiology studies are performed on representative compounds using cells heterologously expressing Nav1.7 or Nav1.5 channels. cDNAsfor Nav1.7 (NM_002977) and Nav1.5 (AC137587) are stably expressed in Chinese Hamstr Ovary (CHO) cells and CHL (Chinese Hamster Lung) cells respectively. Sodium currents are measured in the whole-cell configuration using Syncropatch 384PE (Nanlon Technologies, Germany). 1NPC®-384 chips with custom medium resistance and single hole mode are used. Internal solution consists of (in mM): […], 10 […], 20 EGTA, and 10 Hepes (pH adjusted to 7.2); and external solution contains (in mM): 60 NMDG, 80 NaCl, 4 KCl, 1 MgCl2, 2 CaCl2, 2 D-Glucose monohydrate, 10 Hepes (pH adjusted to 7.4 with NaOH).
After system flushing, testing compounds are dissolved in external solution containing 0.1% Pluronic F-127. The chip is moved into the measuring head and the instrument primes the chip with external and internal solutions. 10 μl cells are added to the chip from a cell hotel, and a negative pressure of −50 mBar is applied to form a seal. Following treatment with seal enhancer solution and wash-off with external solution, negative pressure of −250 mbar is applied for 1 second to achieve the whole-cell configuration, followed by three washing steps in external solution. 20 μl of compounds is added to 40 μl in each well (1:3 dilution of compounds), and after mixing, 20 μl is removed so the volume is retained at 40 μl. After approximately 13 minutes recordings, 20 μl/well of 2 uM TTX, or 333 uM Tetracaine (for Nav1.5) is added to achieve full block.
For voltage protocol, an holding potential of −50 mV is applied during the whole experiment. A depolarizing step is applied to −10 mV for 10 ms, followed by a hyperpolarization step to −150 mV for 20 ms to allow channel recovery from inactivation. A second depolarizing step is applied from −150 mV to −10 mV for 10 ms, where currents are measured to derive blocking effects of compounds. Inhibition is determined based on 7.5 min of compound incubation.
Target sequence in this assay (Q15858 other isoform, or with tags, fused parts or gaps): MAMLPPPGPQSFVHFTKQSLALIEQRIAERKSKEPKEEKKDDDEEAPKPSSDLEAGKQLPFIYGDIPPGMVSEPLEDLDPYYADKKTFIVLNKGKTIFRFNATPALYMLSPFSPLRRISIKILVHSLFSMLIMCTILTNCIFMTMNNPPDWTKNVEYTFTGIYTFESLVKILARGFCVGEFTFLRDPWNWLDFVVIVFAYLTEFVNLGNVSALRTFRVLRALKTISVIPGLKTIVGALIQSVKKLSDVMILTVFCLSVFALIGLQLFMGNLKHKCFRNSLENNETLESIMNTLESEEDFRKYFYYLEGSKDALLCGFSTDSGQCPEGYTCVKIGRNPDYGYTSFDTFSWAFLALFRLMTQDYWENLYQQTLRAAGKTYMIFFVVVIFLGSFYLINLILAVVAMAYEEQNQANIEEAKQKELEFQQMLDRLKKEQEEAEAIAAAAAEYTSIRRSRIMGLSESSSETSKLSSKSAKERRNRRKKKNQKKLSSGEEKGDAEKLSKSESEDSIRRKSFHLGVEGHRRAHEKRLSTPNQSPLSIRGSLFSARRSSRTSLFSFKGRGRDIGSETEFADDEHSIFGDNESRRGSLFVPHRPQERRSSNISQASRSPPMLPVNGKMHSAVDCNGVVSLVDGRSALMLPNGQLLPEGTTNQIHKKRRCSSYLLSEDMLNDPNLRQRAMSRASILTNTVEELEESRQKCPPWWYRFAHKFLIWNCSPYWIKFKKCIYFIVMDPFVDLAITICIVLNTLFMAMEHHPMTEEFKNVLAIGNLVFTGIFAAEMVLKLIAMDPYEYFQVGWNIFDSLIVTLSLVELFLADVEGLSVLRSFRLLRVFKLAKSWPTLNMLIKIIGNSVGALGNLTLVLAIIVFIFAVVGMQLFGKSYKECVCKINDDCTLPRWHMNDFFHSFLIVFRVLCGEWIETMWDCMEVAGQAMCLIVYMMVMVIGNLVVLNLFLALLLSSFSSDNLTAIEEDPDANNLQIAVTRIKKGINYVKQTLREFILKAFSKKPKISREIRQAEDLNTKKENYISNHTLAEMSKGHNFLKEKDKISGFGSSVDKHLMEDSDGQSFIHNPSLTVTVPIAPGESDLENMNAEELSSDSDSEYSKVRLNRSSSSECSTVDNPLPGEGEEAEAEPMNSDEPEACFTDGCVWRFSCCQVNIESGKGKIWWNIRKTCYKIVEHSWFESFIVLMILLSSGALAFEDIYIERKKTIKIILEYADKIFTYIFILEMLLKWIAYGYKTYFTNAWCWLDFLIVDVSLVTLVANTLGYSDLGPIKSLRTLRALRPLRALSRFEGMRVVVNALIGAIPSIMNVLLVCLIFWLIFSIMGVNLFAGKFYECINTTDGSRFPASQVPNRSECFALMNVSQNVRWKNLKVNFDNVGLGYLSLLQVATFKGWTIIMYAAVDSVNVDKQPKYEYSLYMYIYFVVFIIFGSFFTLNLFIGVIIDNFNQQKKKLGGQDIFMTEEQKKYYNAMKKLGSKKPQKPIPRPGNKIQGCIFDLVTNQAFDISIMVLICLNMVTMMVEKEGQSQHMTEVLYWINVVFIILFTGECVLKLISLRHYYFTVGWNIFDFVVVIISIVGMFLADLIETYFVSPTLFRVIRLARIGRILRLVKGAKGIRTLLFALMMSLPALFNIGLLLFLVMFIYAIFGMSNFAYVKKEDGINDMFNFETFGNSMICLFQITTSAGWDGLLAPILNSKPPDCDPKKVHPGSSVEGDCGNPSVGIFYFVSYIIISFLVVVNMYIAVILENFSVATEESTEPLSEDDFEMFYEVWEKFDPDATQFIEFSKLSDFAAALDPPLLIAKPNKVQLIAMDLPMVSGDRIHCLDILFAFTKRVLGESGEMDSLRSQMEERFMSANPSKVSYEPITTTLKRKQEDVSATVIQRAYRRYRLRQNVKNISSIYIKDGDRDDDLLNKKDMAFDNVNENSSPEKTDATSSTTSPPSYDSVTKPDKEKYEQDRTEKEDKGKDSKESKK

4-(((1S,2S,4S)-2-(azetidin-3-yl(methyl)amino)-4-(3-(trifluoromethyl)phenyl)cyclohexyl)oxy)-5-chloro-2-fluoro-N-(pyrimidin-4-yl)benzenesulfonamide [Example 80]
IC50 [1]: 0.39 nM
IC50 [2]: 0.317 nM

5-Chloro-4-(((1S,3R,4R,6R)-7,7-dichloro-4-(dimethylamino)-6-(3-(trifluoromethyl)-phenyl)bicyclo[4.1.0]heptan-3-yl)amino)-2-fluoro-N-(pyrimidin-4-yl)benzenesulfonamide [Example 53]
IC50 [1]: 46.2 nM
IC50 [2]: 1.86 nM

5-Chloro-4-(((3 S,4S,6S)-7,7-dichloro-4-(dimethylamino)-6-(3-(trifluoromethyl)phenyl)-bicyclo[4.1.0]heptan-3-yl)amino)-2-fluoro-N-(pyrimidin-4-yl)benzenesulfonamide [Example 52]
IC50 [1]: 2000 nM
IC50 [2]: 496 nM

CN(C)[C@@H]1C[C@](O)(c2cccc(C(F)(F)F)c2)CC[C@H]1Nc1cc(F)c(S(=O)(=O)Nc2ccncn2)cc1Cl (single isomer, unassigned) [Example 36, formate]
IC50 [1]: 309 nM
IC50 [2]: 144 nM

CN(C)[C@H]1C[C@](O)(c2cccc(C(F)(F)F)c2)CC[C@@H]1Nc1cc(F)c(S(=O)(=O)Nc2ccncn2)cc1Cl (single isomer, unassigned) [Example 37]
IC50 [1]: ≥ 2000 nM
IC50 [2]: 371 nM

CN(C)[C@@H]1C[C@@](O)(c2cccc(C(F)(F)F)c2)CC[C@H]1Nc1cc(F)c(S(=O)(=O)Nc2ccncn2)cc1Cl (single isomer, unassigned) [Example 38, formate]
IC50 [1]: ≥ 2000 nM
IC50 [2]: 9440 nM

CN(C)[C@H]1C[C@@H](c2ccccc2C(F)(F)F)CC[C@@H]1Nc1cc(F)c(S(=O)(=O)Nc2ccncn2)cc1Cl (single isomer, unassigned) [Example 77]
IC50 [1]: 643 nM
IC50 [2]: 211 nM

CN(C)[C@@H]1C[C@H](c2ccccc2C(F)(F)F)CC[C@H]1Nc1cc(F)c(S(=O)(=O)Nc2ccncn2)cc1Cl (single isomer, unassigned) [Example 78]
IC50 [1]: 12.2 nM
IC50 [2]: 1.37 nM

CN(C)[C@H]1C[C@@H](c2cccc(C(F)(F)F)c2)CC[C@@H]1N1C(=O)COc2cc(S(=O)(=O)Nc3ccncn3)c(F)cc21 [Example 1, 4-((1S,2S,4S)-2-(Dimethylamino)-4-(3-(trifluoromethyl)phenyl)cyclohexyl)-6-fluoro-3-oxo-N-(pyrimidin-4-yl)-3,4-dihydro-2H-benzo[b][1,4]oxazine-7-sulfonamide formate]
IC50 [1]: 18.8 nM
IC50 [2]: 3.13 nM

CN(C)[C@H]1C[C@@H](c2cccc(C(F)(F)F)c2)CC[C@@H]1N1CCOc2cc(S(=O)(=O)Nc3ccncn3)c(F)cc21 [Example 2, 4-((1S,2S,4S)-2-(Dimethylamino)-4-(3-(trifluoromethyl)phenyl)cyclohexyl)-6-fluoro-N-(pyrimidin-4-yl)-3,4-dihydro-2H-benzo[b][1,4]oxazine-7-sulfonamide formate]
IC50 [1]: 0.686 nM
IC50 [2]: 1.01 nM

CN(C)[C@H]1C[C@@H](c2cccc(C(F)(F)F)c2)CC[C@@H]1n1c(=O)oc2cc(S(=O)(=O)Nc3ccncn3)c(F)cc21 [Example 3, 3-((1S,2S,4S)-2-(Dimethylamino)-4-(3-(trifluoromethyl)phenyl)cyclohexyl)-5-fluoro-2-oxo-N-(pyrimidin-4-yl)-2,3-dihydrobenzo[d]oxazole-6-sulfonamide formate]
IC50 [1]: 83.1 nM
IC50 [2]: 26.2 nM

CN(C)[C@H]1C[C@@H](c2ccc(Cl)c(Cl)c2)CC[C@@H]1Nc1cc(F)c(S(=O)(=O)Nc2ccncn2)cc1Cl [Example 4, 5-Chloro-4-(((1S,2S,4S)-4-(3,4-dichlorophenyl)-2-(dimethylamino)cyclohexyl)amino)-2-fluoro-N-(pyrimidin-4-yl)benzenesulfonamide]
IC50 [1]: 1.2 nM
IC50 [2]: 0.305 nM

CN(C)[C@H]1C[C@@H](c2cccc(C(F)(F)F)c2)CC[C@@H]1Nc1cc(F)c(S(=O)(=O)Nc2ccncn2)cc1OC(F)F [Example 5, 5-(Difluoromethoxy)-4-(((1S,2S,4S)-2-(dimethylamino)-4-(3-(trifluoromethyl)phenyl)-cyclohexyl)amino)-2-fluoro-N-(pyrimidin-4-yl)benzenesulfonamide formate]
IC50 [1]: 1.37 nM
IC50 [2]: 0.519 nM

CN(C)[C@H]1C[C@@H](c2ccc(F)c(C(F)(F)F)c2)CC[C@@H]1Nc1cc(F)c(S(=O)(=O)Nc2ccncn2)cc1Cl [Example 6, 5-chloro-4-(((1S,2S,4S)-2-(dimethylamino)-4-(4-fluoro-3-(trifluoromethyl)phenyl)-cyclohexyl)amino)-2-fluoro-N-(pyrimidin-4-yl)benzenesulfonamide]
IC50 [1]: 0.791 nM
IC50 [2]: 0.765 nM

CN(C)[C@H]1C[C@@H](c2ccc(Cl)c(C(F)(F)F)c2)CC[C@@H]1Nc1cc(F)c(S(=O)(=O)Nc2ccncn2)cc1Cl [Example 7]
IC50 [1]: 0.52 nM
IC50 [2]: 0.327 nM

CN(C)[C@H]1C[C@@H](Cc2cccc(C(F)(F)F)c2)CC[C@@H]1Nc1cc(F)c(S(=O)(=O)Nc2ccncn2)cc1Cl [Example 8, 5-chloro-4-(((1S,2S,4R)-2-(dimethylamino)-4-(3-(trifluoromethyl)benzyl)cyclohexyl)amino)-2-fluoro-N-(pyrimidin-4-yl)benzenesulfonamide]
IC50 [1]: 6.45 nM
IC50 [2]: 0.991 nM

CN(C)[C@H]1C[C@@H](c2cccc(C(F)(F)F)c2)CC[C@@H]1Nc1ccc(S(=O)(=O)Nc2ccncn2)cc1F [Example 89, 4-(((1S,2S,4S)-2-(Dimethylamino)-4-(3-(trifluoromethyl)phenyl)cyclohexyl)amino)-3-fluoro-N-(pyrimidin-4-yl)benzenesulfonamide formate]
IC50 [1]: 12.4 nM

O=S(=O)(Nc1ccncn1)c1cc(Cl)c(O[C@H]2CC[C@H](c3cccc(C(F)(F)F)c3)C[C@@H]2N2CCC(O)C2)cc1F (stereo partly shown) [Example 90, formate]
IC50 [2]: 0.57 nM
